Reference: ChEMBL document CHEMBL5053468, “Aromatic ring compound as ghrelin o-acyltransferase inhibitor” (2017)

The compounds below were run against T1, Membrane-bound ghrelin O-acyltransferase MBOAT4 (Homo sapiens) (UniProt Q96T53) (assay: Inhibition of human GOAT expressed in baculovirus infected Sf9 cells at 10 uM using octanoyl-CoA and ghrelin-biotin as substrate preincubated for 20 mins followed by substrate addition and measured after = > 1 hr by HTRF assay relative to control). Conditions: time hrs >=1.
T1 sequence (whole entry): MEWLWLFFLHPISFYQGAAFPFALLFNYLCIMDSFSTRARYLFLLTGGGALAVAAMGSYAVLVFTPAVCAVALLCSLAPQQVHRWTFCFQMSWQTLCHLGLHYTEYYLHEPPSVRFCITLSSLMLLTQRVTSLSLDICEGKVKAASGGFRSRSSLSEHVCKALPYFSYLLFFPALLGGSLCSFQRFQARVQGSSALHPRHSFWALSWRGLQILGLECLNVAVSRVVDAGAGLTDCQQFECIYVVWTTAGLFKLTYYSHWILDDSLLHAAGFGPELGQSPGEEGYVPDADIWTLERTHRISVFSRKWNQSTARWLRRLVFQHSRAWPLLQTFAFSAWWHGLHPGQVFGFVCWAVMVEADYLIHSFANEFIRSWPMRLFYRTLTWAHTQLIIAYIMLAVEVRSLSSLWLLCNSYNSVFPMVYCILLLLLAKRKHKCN

inhibition	SMILES
83%	O=C(O)Cc1csc2cc(S(=O)(=O)Cc3ccc(Cl)cc3Cl)ccc12
99%	O=C(O)CC1CSc2cc(OCc3ccc(Cl)cc3Cl)ccc21 (stereo not given)
69%	CC(=O)NCC[C@@H]1COc2cc(OCc3ccc(Cl)cc3Cl)ccc21
103%	Cc1c(OCc2ccc(Cl)cc2Cl)cc(C)c2c(CC(=O)O)coc12
83.2%	CCS(=O)(=O)NC(=O)Cc1csc2cc(OCc3ccc(Cl)cc3Cl)ccc12
100%	Cc1nc(C(F)(F)F)ncc1COc1cc(C)c2c(CC(=O)O)csc2c1
73%	CC(=O)NCCc1coc2cc(OCc3ccc(Cl)cc3Cl)ccc12
102%	Cc1ccc(COc2cc(C)c3c(CC(=O)O)coc3c2C)c(C)n1
95.2%	COC(=O)Cc1csc2cc(OCc3cc(C(F)(F)F)nn3C)cc(C)c12
81%	O=C(O)C1(CO)COc2cc(OCc3ccc(Cl)cc3Cl)ccc21 (stereo not given)
96.5%	COC(=O)Cc1csc2cc(OCc3ccc(C)nc3C)cc(Cl)c12
59%	CCC(=O)NCC[C@@H]1COc2cc(OCc3ccc(Cl)cc3Cl)ccc21
98.9%	COC(=O)Cc1csc2c(F)c(OCc3cc(C(F)(F)F)nn3C)cc(Cl)c12
105%	Cc1nc(C(F)(F)F)ccc1COc1cc(C)c2c(CC(=O)O)csc2c1C
94.9%	COC(=O)Cc1csc2cc(OCc3ccc(C(F)(F)F)nc3C)cc(F)c12
92.8%	CCOC(=O)Cc1csc2cc(OCc3ccc(C)nc3C)ccc12
107%	Cn1nc(C(F)(F)F)cc1COc1cc(Cl)c2c(CC(=O)O)csc2c1F
67%	O=C(O)Cc1csc2cc([S+]([O-])Cc3ccc(Cl)cc3Cl)ccc12 (stereo not given)
88.9%	CCOC(=O)Cc1csc2cc(OCc3cc(C(F)(F)F)nn3C)ccc12
69%	CCOC(=O)Cc1csc2cc(OCc3ccc(Cl)cc3Cl)ccc12
105%	Cn1nc(C(F)(F)F)cc1COc1cc(Cl)c2c(CC(=O)O)csc2c1
95%	O=C(O)CNC(=O)Cc1csc2cc(OCc3ccc(Cl)cc3Cl)ccc12
98.2%	Cn1nc(C(F)(F)F)cc1COc1ccc2c(CC(=O)O)csc2c1
105%	Cn1nc(C(F)(F)F)cc1COc1cc(Cl)c2c(CC(=O)O)csc2c1Cl
91.6%	COC(=O)Cc1csc2cc(OCc3ccc(C(F)(F)F)nc3C)cc(Cl)c12

inhibition	SMILES
106%	Cc1nc(C(F)(F)F)ccc1COc1cc(C)c2c(CC(=O)O)csc2c1F
94.7%	COC(=O)Cc1csc2cc(OCc3cc(C)nn3C)cc(C)c12
103%	Cc1ccc(COc2cc(C(F)(F)F)c3c(CC(=O)O)csc3c2)c(C)n1
99.3%	O=C(O)Cc1csc2cc(SCc3ccc(Cl)cc3Cl)ccc12
96.2%	Cc1cc(OCc2ccc(Cl)cc2Cl)c(C)c2c1C(CC(=O)O)CO2 (stereo not given)
103%	Cn1nc(C(F)(F)F)cc1COc1cc(C(F)(F)F)c2c(CC(=O)O)csc2c1
104%	Cc1cc(OCc2cc(C(F)(F)F)nn2C)cc2scc(CC(=O)O)c12
56%	CCOC(=O)CNC(=O)Cc1csc2cc(OCc3ccc(Cl)cc3Cl)ccc12
85%	COCC1(C(=O)O)COc2cc(OCc3ccc(Cl)cc3Cl)ccc21 (stereo not given)
62.8%	COC(=O)Cc1csc2c(C)c(OCc3ccc(C(F)(F)F)nc3C)cc(C)c12
97.3%	Cc1nc(C(F)(F)F)ncc1COc1ccc2c(CC(=O)O)csc2c1
92.7%	COC(=O)Cc1csc2c(Cl)c(OCc3cc(C(F)(F)F)nn3C)cc(Cl)c12
104%	Cc1cc(OCc2cc(C(F)(F)F)nn2C)c(F)c2scc(CC(=O)O)c12
102%	Cc1nc(C(F)(F)F)ccc1COc1cc(F)c2c(CC(=O)O)csc2c1
105%	Cc1cc(COc2cc(Cl)c3c(CC(=O)O)csc3c2)n(C)n1
88.6%	COC(=O)Cc1csc2c(F)c(OCc3ccc(C(F)(F)F)nc3C)cc(Cl)c12
101%	Cc1nc(C(F)(F)F)ccc1COc1cc(Cl)c2c(CC(=O)O)csc2c1
97.4%	COC(=O)Cc1csc2cc(OCc3cc(C)nn3C)cc(Cl)c12
106%	Cc1nc(C(F)(F)F)ccc1COc1cc(Cl)c2c(CC(=O)O)csc2c1Cl
97%	O=C(Cc1csc2cc(OCc3ccc(Cl)cc3Cl)ccc12)NC(CO)C(=O)O (stereo not given)
88.1%	COC(=O)Cc1csc2c(Cl)c(OCc3ccc(C(F)(F)F)nc3C)cc(Cl)c12
86%	O=C(O)C[C@H]1COc2cc(OCc3ccc(Cl)cc3Cl)ccc21
93.1%	Cc1nc(C(F)(F)F)ccc1COc1ccc2c(CC(=O)O)csc2c1
92.7%	COC(=O)Cc1coc2c(C)c(OCc3ccc(C)nc3C)cc(C)c12
100%	COC(=O)Cc1csc2cc(OCc3cc(C(F)(F)F)nn3C)cc(Cl)c12

inhibition	SMILES
99.2%	O=C(O)Cc1csc2cc(OCc3ccc(Cl)cc3Cl)ccc12
107%	Cc1ccc(COc2cc(Cl)c3c(CC(=O)O)csc3c2)c(C)n1
96.1%	COC(=O)Cc1csc2c(F)c(OCc3cc(C(F)(F)F)nn3C)cc(C)c12
68.7%	COC(=O)Cc1coc2c(C)c(OCc3ccc(Cl)cc3Cl)cc(C)c12
86%	COC(=O)C(CO)NC(=O)Cc1csc2cc(OCc3ccc(Cl)cc3Cl)ccc12 (stereo not given)
103%	Cc1cc(OCc2ccc(Cl)cc2Cl)cc2scc(CC(=O)O)c12
99.5%	COC(=O)Cc1c(C)sc2cc(OCc3cc(C(F)(F)F)nn3C)cc(Cl)c12
106%	Cc1nc(C(F)(F)F)ccc1COc1cc(Cl)c2c(CC(=O)O)csc2c1F
97.3%	Cc1ccc(CCc2ccc3c(CC(=O)O)csc3c2)c(C)n1
93.8%	COC(=O)Cc1csc2cc(OCc3ccc(C(F)(F)F)nc3C)cc(C)c12
99.2%	Cc1nc(C(F)(F)F)ccc1COc1cc(C)c2c(CC(=O)O)csc2c1
79%	O=C(O)CC1CS(=O)(=O)c2cc(OCc3ccc(Cl)cc3Cl)ccc21 (stereo not given)
94.8%	Cc1ccc(COc2cc(C)c3c(c2C)OCC3CC(=O)O)c(C)n1 (stereo not given)
99.9%	COC(=O)Cc1csc2cc(OCc3cc(C(F)(F)F)nn3C)cc(F)c12
84.4%	COC(=O)Cc1csc2cc(OCc3ccc(Cl)cc3Cl)cc(C)c12
104%	Cn1nc(C(F)(F)F)cc1COc1cc(F)c2c(CC(=O)O)csc2c1
103%	Cc1nc(C(F)(F)F)ccc1COc1cc(Cl)c2c(CC(=O)O)c(C)sc2c1
106%	Cc1sc2cc(OCc3cc(C(F)(F)F)nn3C)cc(Cl)c2c1CC(=O)O
99%	Cc1ccc(COc2ccc3c(CC(=O)O)csc3c2)c(C)n1
94%	COC(=O)Cc1csc2c(F)c(OCc3ccc(C(F)(F)F)nc3C)cc(C)c12
100%	O=C(O)Cc1coc2c(Cl)c(OCc3ccc(Cl)cc3Cl)ccc12
93%	O=C(O)C[C@@H]1COc2cc(OCc3ccc(Cl)cc3Cl)ccc21
95.6%	Cc1cc(COc2cc(C)c3c(CC(=O)O)csc3c2)n(C)n1
51.5%	COC(=O)Cc1c(C)sc2cc(OCc3ccc(C(F)(F)F)nc3C)cc(Cl)c12
83.1%	Cc1ccc(/C=C/c2ccc3c(CC(=O)O)csc3c2)c(C)n1
